Holding throughout (assay): relative viability (nuclei count vs DMSO), 5 days (fraction); higher = more cells survive
Compound in assay [1]: CC1=CC=C(C=C1)C(=O)CN2C3=C(CCCC3)SC2=N [Pifithrin_alpha] + CC(=O)Nc1cccc(-n2c(=O)n(C3CC3)c(=O)c3c(Nc4ccc(I)cc4F)n(C)c(=O)c(C)c32)c1 [Trametinib] (partner 0.02 µM)
In a few lines: (§1)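 A single step with final 0.05% Triton X-100, 1% formaldehyde and 1 ug/ml Hoechst fixed the cells and stained nuclei 5 days after treatment. Lung cancer cell lines in 1536-well plates had been treated by pin tool the day after seeding with one drug alone or a fixed anchor-drug dose plus five library-drug doses (not always all listed) in √10 steps, and nuclei were counted on 4× images. Relative viability is the ratio of nuclei in treated wells to nuclei in vehicle wells, taken as the median of duplicate plates.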

Compound in the assay “Bemcentinib + Olaparib”: Nc1nc(Nc2ccc3c(c2)CC[C@@H](N2CCCC2)CC3)nn1-c1cc2c(nn1)-c1ccccc1CCC2 [Bemcentinib] + O=C(c1cc(Cc2n[nH]c(=O)c3ccccc23)ccc1F)N1CCN(C(=O)C2CC2)CC1 [Olaparib] (partner 8 µM)
Put shortly: as §1

Compound in the assay “Bemcentinib + Navitoclax”: Nc1nc(Nc2ccc3c(c2)CC[C@@H](N2CCCC2)CC3)nn1-c1cc2c(nn1)-c1ccccc1CCC2 [Bemcentinib] + CC1(C)CCC(c2ccc(Cl)cc2)=C(CN2CCN(c3ccc(C(=O)NS(=O)(=O)c4ccc(N[C@H](CCN5CCOCC5)CSc5ccccc5)c(S(=O)(=O)C(F)(F)F)c4)cc3)CC2)C1 [Navitoclax] (partner 0.5 µM)
In a few lines:
as §1

Compound in the assay “Bemcentinib + Phenformin”: Nc1nc(Nc2ccc3c(c2)CC[C@@H](N2CCCC2)CC3)nn1-c1cc2c(nn1)-c1ccccc1CCC2 [Bemcentinib] + N=C(N)NC(=N)NCCc1ccccc1 [Phenformin] (partner 250 µM)
Put shortly: as §1

NCI-H2228: the relative viability in assay [1] (first compound 1 µM) was 0.611; in assay [1] (first compound 3.162 µM) it was 0.482; in assay [1] (first compound 10 µM), 0.499; in assay [1] (first compound 31.62 µM), 0.384; in assay [1] (first compound 100 µM), 0.436; with Bemcentinib + Olaparib (first compound 0.04 µM), 0.379. The relative viability with Bemcentinib + Olaparib (first compound 0.1265 µM) is 0.616; in the assay with Bemcentinib + Olaparib (first compound 0.4 µM), 0.593; in the assay with Bemcentinib + Olaparib (first compound 1.265 µM) it was 0.707; with Bemcentinib + Olaparib (first compound 4 µM), 0.749; with Bemcentinib + Navitoclax (first compound 0.1265 µM), 1.06; with Bemcentinib + Navitoclax (first compound 0.4 µM), 1.15. Besides, the relative viability worked out at 0.909 with Bemcentinib + Navitoclax (first compound 1.265 µM); 1.08 with Bemcentinib + Navitoclax (first compound 4 µM); 0.157 in the assay with Bemcentinib + Phenformin (first compound 0.04 µM); 0.329 with Bemcentinib + Phenformin (first compound 0.1265 µM); 0.395 in the assay with Bemcentinib + Phenformin (first compound 0.4 µM); 0.346 with Bemcentinib + Phenformin (first compound 1.265 µM). Also, the relative viability with Bemcentinib + Phenformin (first compound 4 µM) was determined as 0.295.
As to NCI-H2347, the relative viability is 0.301 in assay [1] (first compound 1 µM); 0.335 in assay [1] (first compound 3.162 µM); 0.24 in assay [1] (first compound 10 µM); 0.293 in assay [1] (first compound 31.62 µM); 0.221 in assay [1] (first compound 100 µM); 0.58 in the assay with Bemcentinib + Olaparib (first compound 0.04 µM). In addition, the relative viability was determined as 0.587 with Bemcentinib + Olaparib (first compound 0.1265 µM); 0.553 with Bemcentinib + Olaparib (first compound 0.4 µM); 0.659 in the assay with Bemcentinib + Olaparib (first compound 1.265 µM); 0.611 in the assay with Bemcentinib + Olaparib (first compound 4 µM); 0.741 with Bemcentinib + Navitoclax (first compound 0.04 µM); 0.862 with Bemcentinib + Navitoclax (first compound 0.1265 µM). The relative viability with Bemcentinib + Navitoclax (first compound 0.4 µM) stood at 0.864; with Bemcentinib + Navitoclax (first compound 1.265 µM) it was 0.918; with Bemcentinib + Navitoclax (first compound 4 µM), 0.966; in the assay with Bemcentinib + Phenformin (first compound 0.04 µM) it was 0.423; with Bemcentinib + Phenformin (first compound 0.1265 µM), 0.447; with Bemcentinib + Phenformin (first compound 0.4 µM), 0.329. The results for the relative viability with Bemcentinib + Phenformin (first compound 1.265 µM) and in the assay with Bemcentinib + Phenformin (first compound 4 µM) were 0.364 and 0.334, respectively.
For NCI-H2405, the relative viability in assay [1] (first compound 3.162 µM) stood at 0.604; in assay [1] (first compound 10 µM) it was 0.544; in assay [1] (first compound 31.62 µM) it was 0.567; in assay [1] (first compound 100 µM) it was 0.601; with Bemcentinib + Olaparib (first compound 0.04 µM) it was 0.83; with Bemcentinib + Olaparib (first compound 0.1265 µM), 0.938. Also, the relative viability with Bemcentinib + Olaparib (first compound 0.4 µM) stood at 0.959; with Bemcentinib + Olaparib (first compound 1.265 µM) it was 0.975; in the assay with Bemcentinib + Olaparib (first compound 4 µM), 0.91; in the assay with Bemcentinib + Navitoclax (first compound 0.04 µM), 0.788; in the assay with Bemcentinib + Navitoclax (first compound 0.1265 µM) it was 0.868; with Bemcentinib + Navitoclax (first compound 0.4 µM) it was 0.859. The relative viability with Bemcentinib + Navitoclax (first compound 1.265 µM) was determined as 0.877; with Bemcentinib + Navitoclax (first compound 4 µM) it was 0.84; with Bemcentinib + Phenformin (first compound 0.04 µM), 0.409; with Bemcentinib + Phenformin (first compound 0.1265 µM), 0.412; with Bemcentinib + Phenformin (first compound 0.4 µM), 0.385; with Bemcentinib + Phenformin (first compound 1.265 µM), 0.372. Moreover, the relative viability in the assay with Bemcentinib + Phenformin (first compound 4 µM) was determined as 0.376.
As to NCI-H3122, the relative viability in assay [1] (first compound 1 µM) was 0.254; in assay [1] (first compound 3.162 µM) it was 0.296; in assay [1] (first compound 10 µM), 0.25; in assay [1] (first compound 31.62 µM), 0.213; in assay [1] (first compound 100 µM), 0.286; with Bemcentinib + Olaparib (first compound 0.04 µM) it was 0.651. Further, the relative viability amounted to 0.652 in the assay with Bemcentinib + Olaparib (first compound 0.1265 µM); 0.637 with Bemcentinib + Olaparib (first compound 0.4 µM); 0.678 in the assay with Bemcentinib + Olaparib (first compound 1.265 µM); 0.68 with Bemcentinib + Olaparib (first compound 4 µM); 1.01 with Bemcentinib + Navitoclax (first compound 0.04 µM); 1.06 with Bemcentinib + Navitoclax (first compound 0.1265 µM). The relative viability with Bemcentinib + Navitoclax (first compound 0.4 µM) worked out at 1.02; in the assay with Bemcentinib + Navitoclax (first compound 1.265 µM), 1; with Bemcentinib + Navitoclax (first compound 4 µM) it was 1.03; in the assay with Bemcentinib + Phenformin (first compound 0.1265 µM), 0.412; in the assay with Bemcentinib + Phenformin (first compound 0.4 µM), 0.366; with Bemcentinib + Phenformin (first compound 1.265 µM) it was 0.358. Moreover, the relative viability with Bemcentinib + Phenformin (first compound 4 µM) worked out at 0.381.
On to PC-3 [JPC-3], for which the relative viability was found to be 0.648 in assay [1] (first compound 3.162 µM); 0.614 in assay [1] (first compound 31.62 µM); 0.487 in assay [1] (first compound 100 µM); 1.08 with Bemcentinib + Olaparib (first compound 0.04 µM); 1.15 in the assay with Bemcentinib + Olaparib (first compound 0.1265 µM); 1.17 with Bemcentinib + Olaparib (first compound 0.4 µM). The relative viability came to 1.11 in the assay with Bemcentinib + Olaparib (first compound 1.265 µM); 1.06 with Bemcentinib + Olaparib (first compound 4 µM); 0.803 with Bemcentinib + Navitoclax (first compound 0.04 µM); 0.827 with Bemcentinib + Navitoclax (first compound 0.1265 µM); 0.865 with Bemcentinib + Navitoclax (first compound 0.4 µM); 0.848 with Bemcentinib + Navitoclax (first compound 1.265 µM). Moreover, the relative viability with Bemcentinib + Navitoclax (first compound 4 µM) amounted to 0.826; with Bemcentinib + Phenformin (first compound 0.04 µM), 0.477; with Bemcentinib + Phenformin (first compound 0.1265 µM) it was 0.454; with Bemcentinib + Phenformin (first compound 0.4 µM), 0.473; with Bemcentinib + Phenformin (first compound 1.265 µM) it was 0.497; in the assay with Bemcentinib + Phenformin (first compound 4 µM) it was 0.448.
Consider PC-14, for which the relative viability in assay [1] (first compound 1 µM) was 0.731; in assay [1] (first compound 3.162 µM) it was 0.654; in assay [1] (first compound 10 µM) it was 0.547; in assay [1] (first compound 31.62 µM), 0.319; in assay [1] (first compound 100 µM), 0.383; with Bemcentinib + Olaparib (first compound 0.04 µM) it was 0.279. Besides, the relative viability with Bemcentinib + Olaparib (first compound 0.1265 µM) came to 0.433; with Bemcentinib + Olaparib (first compound 0.4 µM) it was 0.235; with Bemcentinib + Olaparib (first compound 1.265 µM), 0.225; in the assay with Bemcentinib + Olaparib (first compound 4 µM), 0.187; with Bemcentinib + Navitoclax (first compound 0.04 µM), 1.07; with Bemcentinib + Navitoclax (first compound 0.1265 µM) it was 1.12. Also, the relative viability with Bemcentinib + Navitoclax (first compound 0.4 µM) turned out to be 1.16; with Bemcentinib + Navitoclax (first compound 1.265 µM) it was 1.05; with Bemcentinib + Navitoclax (first compound 4 µM), 0.997; with Bemcentinib + Phenformin (first compound 0.04 µM) it was 0.458; in the assay with Bemcentinib + Phenformin (first compound 0.1265 µM), 0.704; in the assay with Bemcentinib + Phenformin (first compound 0.4 µM), 0.648. Besides, the relative viability is 0.581 with Bemcentinib + Phenformin (first compound 1.265 µM) and 0.465 in the assay with Bemcentinib + Phenformin (first compound 4 µM).

The record behind these values is the supplement of paper PMC10307832.
